Laboratory results as given in the supplement of paper PMC6045584.
± gives the standard deviation of the averaged measurements.

Columns and labels:
XAV-939 = compound: Oc1nc(-c2ccc(C(F)(F)F)cc2)nc2c1CSCC2 [XAV-939]; assay: surviving fraction relative to DMSO-only wells; higher = less growth inhibition; settings: exposure time: 5 days
Method in brief: (§1)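 In 384-well plates, 250–500 log-phase tumour cells per well were given 24 hours before five days of continuous exposure to inhibitors at 0.5, 1, 5, 10, 50, 100, 500 and 1000 nM. Surviving fraction is luminescence from CellTiter-Glo, normalised to the median of wells containing DMSO alone. Reading took place after 10 minutes at room temperature.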

TEMOZOLOMIDE = compound: Cn1nnc2c(C(N)=O)ncn2c1=O [TEMOZOLOMIDE]; assay: as above; settings: exposure time: 5 days
Method in brief: as §1

Row | Test System | surviving fraction (XAV-939; 0.5 nM) | surviving fraction (XAV-939; 1 nM) | surviving fraction (XAV-939; 5 nM) | surviving fraction (XAV-939; 10 nM) | surviving fraction (XAV-939; 50 nM) | surviving fraction (XAV-939; 100 nM) | surviving fraction (XAV-939; 500 nM) | surviving fraction (XAV-939; 1000 nM) | surviving fraction (TEMOZOLOMIDE; 0.5 nM) | surviving fraction (TEMOZOLOMIDE; 1 nM) | surviving fraction (TEMOZOLOMIDE; 5 nM) | surviving fraction (TEMOZOLOMIDE; 10 nM) | surviving fraction (TEMOZOLOMIDE; 50 nM) | surviving fraction (TEMOZOLOMIDE; 100 nM) | surviving fraction (TEMOZOLOMIDE; 500 nM) | surviving fraction (TEMOZOLOMIDE; 1000 nM)
1 | MDAMB436 BREAST | 0.957 ± 0.092 | 0.911 ± 0.088 | 0.923 ± 0.013 | 0.968 ± 0.079 | 0.959 ± 0.075 | 0.958 ± 0.081 | 0.856 ± 0.049 | 0.82 ± 0.011 | 0.976 ± 0.14 | 1.03 ± 0.15 | 0.997 ± 0.13 | 1.09 ± 0.17 | 0.936 ± 0.1 | 1.04 ± 0.14 | 1.03 ± 0.11 | 0.959 ± 0.051
2 | MDAMB453 BREAST | 0.991 ± 0.053 | 1.02 ± 0.034 | 1.1 ± 0.088 | 1.08 ± 0.043 | 1.06 ± 0.04 | 1.12 ± 0.074 | 1.02 ± 0.069 | 0.961 ± 0.049 | 1.07 ± 0.015 | 1.097 ± 0.0087 | 1.13 ± 0.016 | 1.1 ± 0.076 | 1.14 ± 0.058 | 1.09 ± 0.11 | 1.07 ± 0.075 | 1.09 ± 0.056
3 | MDAMB468 BREAST | 1.08 ± 0.041 | 1.04 ± 0.061 | 1.04 ± 0.039 | 1.08 ± 0.038 | 1.09 ± 0.014 | 1.05 ± 0.033 | 0.988 ± 0.072 | 0.964 ± 0.043 | 0.983 ± 0.086 | 1.13 ± 0.045 | 1.114 ± 0.0027 | 1.17 ± 0.075 | 1.09 ± 0.07 | 1.15 ± 0.045 | 1.03 ± 0.1 | 1.12 ± 0.091
4 | MFM223 BREAST | 1.18 ± 0.037 | 1.11 ± 0.062 | 1.12 ± 0.023 | 1.112 ± 0.0058 | 0.913 ± 0.034 | 1.08 ± 0.043 | 0.891 ± 0.059 | 0.685 ± 0.033 | 1.46 ± 0.65 | 1.38 ± 0.44 | 1.5 ± 0.54 | 1.49 ± 0.63 | 1.38 ± 0.52 | 1.19 ± 0.07 | 1.38 ± 0.48 | 1.17 ± 0.08
5 | MG63 BONE | 0.98 ± 0.028 | 1.03 ± 0.034 | 1.025 ± 0.0083 | 1.09 ± 0.018 | 0.947 ± 0.034 | 0.923 ± 0.03 | 0.7 ± 0.0078 | 0.723 ± 0.021 | 0.964 ± 0.016 | 1.01 ± 0.036 | 1.03 ± 0.026 | 1.09 ± 0.035 | 1.01 ± 0.032 | 1.1 ± 0.047 | 0.997 ± 0.031 | 1.02 ± 0.032
6 | MHM BONE | 0.999 ± 0.011 | 1.02 ± 0.033 | 1.024 ± 0.009 | 1.03 ± 0.033 | 0.96 ± 0.081 | 1.04 ± 0.012 | 0.963 ± 0.005 | 0.949 ± 0.029 | 0.9827 ± 0.0021 | 0.975 ± 0.007 | 1.01 ± 0.043 | 1.04 ± 0.014 | 0.998 ± 0.042 | 1.03 ± 0.029 | 0.973 ± 0.032 | 0.998 ± 0.0056
7 | NCIH441 LUNG | 0.962 ± 0.096 | 1.07 ± 0.052 | 1.02 ± 0.064 | 1.07 ± 0.065 | 1.02 ± 0.077 | 1.06 ± 0.054 | 1.01 ± 0.045 | 0.918 ± 0.052 | 1.07 ± 0.065 | 1.14 ± 0.06 | 1.21 ± 0.059 | 1.06 ± 0.066 | 1.04 ± 0.081 | 1.13 ± 0.074 | 1.11 ± 0.086 | 1.19 ± 0.058
8 | NOS1 BONE | 1.11 ± 0.086 | 1.06 ± 0.045 | 1.29 ± 0.26 | 1.14 ± 0.074 | 1.17 ± 0.083 | 1.06 ± 0.096 | 0.783 ± 0.1 | 0.778 ± 0.065 | 0.881 ± 0.071 | 1.01 ± 0.077 | 1.16 ± 0.11 | 1.16 ± 0.049 | 1.25 ± 0.099 | 1.15 ± 0.067 | 1.01 ± 0.076 | 1.06 ± 0.14
9 | NY BONE | 0.927 ± 0.024 | 0.98 ± 0.037 | 0.997 ± 0.018 | 1.06 ± 0.036 | 1.03 ± 0.053 | 1.02 ± 0.041 | 0.936 ± 0.032 | 0.924 ± 0.029 | 1.01 ± 0.033 | 1.05 ± 0.018 | 1.01 ± 0.066 | 1.09 ± 0.035 | 1.063 ± 0.004 | 1.09 ± 0.029 | 1.014 ± 0.0032 | 1.02 ± 0.013
10 | OS25HAL BONE | 1.01 ± 0.026 | 1.04 ± 0.015 | 1.03 ± 0.014 | 0.965 ± 0.034 | 1.01 ± 0.013 | 1.03 ± 0.029 | 0.872 ± 0.06 | 0.893 ± 0.075 | 1.02 ± 0.037 | 1.09 ± 0.031 | 1.06 ± 0.019 | 1.11 ± 0.023 | 1.02 ± 0.033 | 1.09 ± 0.03 | 1.07 ± 0.051 | 1.08 ± 0.041
11 | OSHN BONE | 1.02 ± 0.013 | 1.07 ± 0.047 | 1.07 ± 0.037 | 1.05 ± 0.038 | 1.05 ± 0.015 | 1.09 ± 0.031 | 1.07 ± 0.038 | 1.11 ± 0.035 | 1.05 ± 0.014 | 1.08 ± 0.018 | 1.06 ± 0.018 | 1.13 ± 0.035 | 1.07 ± 0.016 | 1.1 ± 0.028 | 1.081 ± 0.0068 | 1.1 ± 0.018
12 | PCI30 HEADNECK | 1.01 ± 0.029 | 0.975 ± 0.064 | 1.07 ± 0.04 | 1.057 ± 0.0035 | 1.06 ± 0.036 | 1.15 ± 0.065 | 0.945 ± 0.13 | 0.8693 ± 0.008 | 0.957 ± 0.026 | 0.976 ± 0.067 | 0.988 ± 0.023 | 1.04 ± 0.043 | 1.07 ± 0.047 | 1.05 ± 0.041 | 0.937 ± 0.013 | 0.939 ± 0.03
13 | RDES SOFT TISSUE | 1.24 ± 0.15 | 1.3 ± 0.16 | 1.29 ± 0.21 | 1.22 ± 0.2 | 1.21 ± 0.14 | 1.18 ± 0.27 | 1.11 ± 0.11 | 1.08 ± 0.16 | 1.11 ± 0.033 | 1.2 ± 0.06 | 1.14 ± 0.088 | 1.02 ± 0.12 | 1.15 ± 0.13 | 1.3 ± 0.14 | 1.27 ± 0.15 | 1.34 ± 0.17
14 | S68 BREAST | 0.722 ± 0.22 | 0.763 ± 0.12 | 1.14 ± 0.25 | 0.983 ± 0.32 | 1.19 ± 0.13 | 1.12 ± 0.22 | 0.829 ± 0.05 | 0.767 ± 0.076 | 0.996 ± 0.22 | 1.07 ± 0.034 | 1.08 ± 0.18 | 1.06 ± 0.12 | 1.04 ± 0.044 | 1.09 ± 0.25 | 1.05 ± 0.078 | 1.29 ± 0.24
15 | SAOS2 BONE | 1.16 ± 0.027 | 1.15 ± 0.041 | 1.21 ± 0.022 | 1.28 ± 0.05 | 1.26 ± 0.034 | 1.25 ± 0.051 | 1.14 ± 0.046 | 1.07 ± 0.072 | 1.1 ± 0.026 | 1.12 ± 0.099 | 1.25 ± 0.047 | 1.2 ± 0.05 | 1.2 ± 0.13 | 1.23 ± 0.081 | 1.16 ± 0.063 | 1.18 ± 0.14
16 | SCC003 HEADNECK | 1.04 ± 0.11 | 1.07 ± 0.096 | 1.1 ± 0.052 | 1.08 ± 0.11 | 1.02 ± 0.025 | 1.07 ± 0.076 | 1.01 ± 0.12 | 1.05 ± 0.13 | 1.05 ± 0.077 | 1.04 ± 0.059 | 1.08 ± 0.072 | 1.15 ± 0.073 | 1.06 ± 0.034 | 1.1 ± 0.071 | 1.07 ± 0.057 | 1.09 ± 0.036
17 | SCC36 HEADNECK | 1.07 ± 0.11 | 0.964 ± 0.16 | 1.19 ± 0.045 | 1.06 ± 0.082 | 1.11 ± 0.032 | 1.1 ± 0.077 | 0.825 ± 0.029 | 0.711 ± 0.022 | 1.04 ± 0.065 | 1.08 ± 0.088 | 1.19 ± 0.11 | 1.14 ± 0.069 | 1.07 ± 0.056 | 1.08 ± 0.14 | 1.11 ± 0.1 | 1.05 ± 0.078
18 | SCC47 HEADNECK | 0.987 ± 0.14 | 1.14 ± 0.058 | 1.08 ± 0.036 | 1.16 ± 0.027 | 1.07 ± 0.047 | 1.11 ± 0.082 | 0.962 ± 0.05 | 0.966 ± 0.093 | 0.956 ± 0.035 | 1.06 ± 0.074 | 1.1 ± 0.035 | 1.12 ± 0.085 | 1.04 ± 0.11 | 1.22 ± 0.14 | 1.1 ± 0.06 | 1.14 ± 0.17
19 | SCC90 HEADNECK | 1.01 ± 0.1 | 1.11 ± 0.18 | 1.08 ± 0.077 | 1.13 ± 0.071 | 1.05 ± 0.03 | 1.05 ± 0.084 | 0.894 ± 0.032 | 0.918 ± 0.07 | 0.973 ± 0.039 | 1.16 ± 0.11 | 1.05 ± 0.053 | 1.02 ± 0.062 | 1.08 ± 0.073 | 1.06 ± 0.2 | 1.1 ± 0.088 | 1.01 ± 0.057
